Results reported in patent US8569336B2, “Compounds for the treatment of inflammatory disorders” (priority 2008, dated 2013).
pIC50, pKi: −log10 of the molar value. Where two headings read alike, the source gives them in different places.

Experiments:
[1] = tested on: TNF-α production from human whole blood; assay: Inhibition of TNF-α production from human whole blood (hWBA), LPS stimulated, ELISA; assay type: cell-based; conditions: Homo sapiens, TNF-α by ELISA, read-out: hWBA (IC50)
[2] = biological target: T1, purified catalytic domain of recombinant human TACE (rhTACEc) (Homo sapiens, UniProt P78536, N452Q/S266A); assay: TACE kinetic assay: cleavage of internally quenched peptide substrate TNF-FRET 2 (Ki); assay type: biochemical; conditions: TNF-FRET 2 substrate
T1 construct: 6xHis (C); made in house; host or cells: baculovirus/Hi5 insect cells

[3] = LPS-stimulated human whole blood
[4] = 3.5 h, human whole blood diluted 1:1, LPS stimulated, 3.5 h

T1 sequence (P78536 215-477 S266A/N452Q): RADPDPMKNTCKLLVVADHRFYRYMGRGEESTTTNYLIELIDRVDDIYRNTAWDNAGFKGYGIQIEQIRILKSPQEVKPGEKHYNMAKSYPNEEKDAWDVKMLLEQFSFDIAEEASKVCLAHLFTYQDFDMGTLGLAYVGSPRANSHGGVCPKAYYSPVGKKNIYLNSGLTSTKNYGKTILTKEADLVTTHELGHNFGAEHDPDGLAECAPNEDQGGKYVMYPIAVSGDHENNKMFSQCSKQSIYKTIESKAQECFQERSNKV

COc1ccc2c(c1)C(=O)N(C[C@@]1(c3cc4c(o3)CCN(C(N)=O)C4)NC(=O)NC1=O)C2 [Compound 318]
pIC50 [1, 3]: 6.19 | pKi ([2]; read-out: Ki): 8.25

COc1ccc2c(c1)C(=O)N(C[C@@]1(c3cc4c(o3)CCN(C(=O)N(C)C)C4)NC(=O)NC1=O)C2 [Compound 319]
pIC50 [1, 3]: 6.30 | pKi ([2]; read-out: Ki): 8.74

COc1ccc2c(c1)C(=O)N(C[C@@]1(c3cc4c(o3)CCN(C(=O)Nc3cccnc3)C4)NC(=O)NC1=O)C2 [Compound 321]
pIC50 [1, 3]: ≤ 3.00 | pKi ([2]; read-out: Ki): 6.15

COc1ccc2c(c1)C(=O)N(C[C@@]1(c3cc4cnc(C#N)cc4o3)NC(=O)NC1=O)C2 [Compound 322]
pIC50 [1, 3]: 6.12 | pKi ([2]; read-out: Ki): 9.17

COc1ccc2c(c1)C(=O)N(C[C@@]1(c3cc4cc(-c5c(OC(C)C)noc5C)cnc4o3)NC(=O)NC1=O)C2 [Compound 501]
pIC50 [1, 3]: 5.80 | pKi ([2]; read-out: Ki): 9.07

COc1ccc2c(c1)C(=O)N(C[C@@]1(c3cn4c5c(sc4n3)CN(C)CC5)NC(=O)NC1=O)C2 [Compound 503]
pIC50 [1, 3]: 5.74 | pKi ([2]; read-out: Ki): 8.37

COc1ccc2c(c1F)C(=O)N(C[C@@]1(c3cc4ccc(NC(C)=O)nc4o3)NC(=O)NC1=O)C2 [Compound 505]
pIC50 [1, 3]: 6.60 | pKi ([2]; read-out: Ki): 9.25

COc1ccc2c(c1F)C(=O)N(C[C@@]1(c3cc4cc(-c5c(C)nn(C)c5C)c(F)cc4o3)NC(=O)NC1=O)C2 [Compound 1181]
pIC50 [1, 3]: 6.45 | pKi ([2]; read-out: Ki): 9.39

COc1ccc2c(c1F)C(=O)N(C[C@@]1(c3cc4cc(-c5c(C)n[nH]c5C)c(F)cc4o3)NC(=O)NC1=O)C2 [Compound 1183]
pIC50 [1, 3]: 6.63 | pKi ([2]; read-out: Ki): 9.85

COc1ccc2c(c1)C(=O)N(C[C@@]1(c3cc4cc(-c5ccc(N(C)C)nc5)ccc4o3)NC(=O)NC1=O)C2 [Compound 1184]
pIC50 [1, 4]: 5.57 | pKi ([2]; read-out: Ki): 9.07

COC(=O)c1cc2cc([C@]3(CN4Cc5ccc(OC)cc5C4=O)NC(=O)NC3=O)oc2cc1F [Compound 1271]
pIC50 [1, 4]: 5.98 | pKi ([2]; read-out: Ki): 9.35

COc1ccc2c(c1)C(=O)N(C[C@@]1(c3cc4cc(C(=O)O)c(F)cc4o3)NC(=O)NC1=O)C2 [Compound 1272]
pIC50 [1, 4]: 6.18 | pKi ([2]; read-out: Ki): 9.29

COc1ccc2c(c1)C(=O)N(C[C@@]1(c3cc4cc(C(=O)NCCN)c(F)cc4o3)NC(=O)NC1=O)C2 [Compound 1274]
pIC50 [1, 4]: 6.85 | pKi ([2]; read-out: Ki): 9.30

COc1ccc2c(c1)C(=O)N(C[C@@]1(c3cc4cc(C(=O)N(C)CCN(C)C)c(F)cc4o3)NC(=O)NC1=O)C2 [Compound 1275]
pIC50 [1, 4]: 6.36 | pKi ([2]; read-out: Ki): 9.06

COc1ccc2c(c1)C(=O)N(C[C@@]1(c3cc4cc(C(=O)NCCNC(C)C)c(F)cc4o3)NC(=O)NC1=O)C2 [Compound 1276]
pIC50 [1, 4]: 6.60 | pKi ([2]; read-out: Ki): 8.92

COc1ccc2c(c1)C(=O)N(C[C@@]1(c3cc4cc(C(=O)N5CCC(N(C)C)CC5)c(F)cc4o3)NC(=O)NC1=O)C2 [Compound 1277]
pIC50 [1, 4]: 6.33 | pKi ([2]; read-out: Ki): 9.21

COc1ccc2c(c1)C(=O)N(C[C@@]1(c3cc4cc(C(=O)NCCN(C)CCNC(=O)OC(C)(C)C)c(F)cc4o3)NC(=O)NC1=O)C2 [Compound 1278]
pIC50 [1, 4]: 5.49 | pKi ([2]; read-out: Ki): 8.74

COc1ccc2c(c1)C(=O)N(C[C@@]1(c3cc4cc(C(=O)NCCN(C)CCN)c(F)cc4o3)NC(=O)NC1=O)C2 [Compound 1279]
pIC50 [1, 4]: 6.30 | pKi ([2]; read-out: Ki): 9.00

COc1ccc2c(c1)C(=O)N(C[C@@]1(c3cc4cc(C(=O)NCCN(C)CCNS(C)(=O)=O)c(F)cc4o3)NC(=O)NC1=O)C2 [Compound 1281]
pIC50 [1, 4]: 5.96 | pKi ([2]; read-out: Ki): 9.08

COC(=O)[C@H](CCCCNC(=O)c1cc2cc([C@]3(CN4Cc5ccc(OC)cc5C4=O)NC(=O)NC3=O)oc2cc1F)NC(=O)CCCC[C@@H]1SCC2NC(=O)NC21 (stereo partly shown) [Compound 1282]
pIC50 [1, 4]: 6.39 | pKi ([2]; read-out: Ki): 9.32

COc1ccc2c(c1)C(=O)N(C[C@@]1(c3cc4cc(C(=O)NCCCC[C@H](NC(=O)CCCC[C@@H]5SCC6NC(=O)NC65)C(=O)O)c(F)cc4o3)NC(=O)NC1=O)C2 (stereo partly shown) [Compound 1283]
pIC50 [1, 4]: 5.48 | pKi ([2]; read-out: Ki): 9.41

CN(C)C1CCN(c2ccc3oc(C4(CN5Cc6ccc(Cl)cc6C5=O)NC(=O)NC4=O)cc3n2)CC1 (stereo not shown) [Compound 1291]
pIC50 [1, 4]: 5.85 | pKi ([2]; read-out: Ki): 8.88

CCN1C[C@@H]2C[C@H]1CN2c1ccc2oc([C@]3(CN4Cc5ccc(OC)c(F)c5C4=O)NC(=O)NC3=O)cc2n1 [Compound 1292]
pIC50 [1, 4]: 6.75 | pKi ([2]; read-out: Ki): 9.07

CCN1CCN(c2ccc3oc([C@]4(CN5Cc6ccc(OC)c(F)c6C5=O)NC(=O)NC4=O)cc3n2)C[C@H]1C [Compound 1293]
pIC50 [1, 4]: 6.95 | pKi ([2]; read-out: Ki): 9.10

CCN1CCN(c2ccc3oc([C@]4(CN5Cc6ccc(OC)c(F)c6C5=O)NC(=O)NC4=O)cc3n2)C[C@@H]1C [Compound 1294]
pIC50 [1, 4]: 6.56 | pKi ([2]; read-out: Ki): 8.96

O=C1NC(=O)C(CN2Cc3ccccc3C2=O)(c2ccc(Br)cc2)N1 (stereo not shown) [Compound 1296]
pIC50 [1, 4]: < 5.00 | pKi ([2]; read-out: Ki): 8.15

COc1ccc2c(c1F)C(=O)N(C[C@@]1(c3cc4cc(C5(C)NC(=O)NC5=O)c(C)cc4o3)NC(=O)NC1=O)C2 (stereo partly shown) [Compound 1306]
pIC50 [1, 3]: 6.38 | pKi ([2]; read-out: Ki): 8.85

COc1ccc2c(c1)C(=O)N(C[C@@]1(c3cc4nc(-c5cc(O)cc(-c6ccncc6)c5)ccc4o3)NC(=O)NC1=O)C2 [Compound 1308]
pIC50 [1, 3]: 5.53 | pKi ([2]; read-out: Ki): 8.86

COc1ccc2c(c1F)C(=O)N(C[C@@]1(c3cc4cc(F)c(C)nc4o3)NC(=O)NC1=O)C2 [Compound 1313]
pIC50 [1, 3]: 6.16 | pKi ([2]; read-out: Ki): 9.08

COc1ccc2c(c1F)C(=O)N(C[C@@]1(c3cc4c(F)cnc(C)c4o3)NC(=O)NC1=O)C2 [Compound 1314]
pIC50 [1, 3]: 6.14 | pKi ([2]; read-out: Ki): 8.92

COc1ccc2c(c1F)C(=O)N(C[C@@]1(c3cc4nc(-c5cccnc5)c(F)cc4o3)NC(=O)NC1=O)C2 [Compound 1315]
pIC50 [1, 3]: 5.95 | pKi ([2]; read-out: Ki): 10.05

COc1ccc2c(c1F)C(=O)N(C[C@@]1(c3cc4cc([C@]5(C)C(=O)NC(=O)N5C)c(F)cc4o3)NC(=O)NC1=O)C2 [Compound 1317]
pIC50 [1, 3]: 6.63 | pKi ([2]; read-out: Ki): 9.33

CCN1CC=C(c2nc3cc([C@]4(CN5Cc6ccc(OC)c(F)c6C5=O)NC(=O)NC4=O)oc3cc2F)CC1 [Compound 1321]
pIC50 [1, 3]: 6.74 | pKi ([2]; read-out: Ki): 9.19

CCCN1CC=C(c2nc3cc([C@]4(CN5Cc6ccc(OC)c(F)c6C5=O)NC(=O)NC4=O)oc3cc2F)CC1 [Compound 1322]
pIC50 [1, 3]: 7.02 | pKi ([2]; read-out: Ki): 9.29

COc1ccc2c(c1F)C(=O)N(C[C@@]1(c3cc4nc(C5CCNCC5)c(F)cc4o3)NC(=O)NC1=O)C2 [Compound 1323]
pIC50 [1, 3]: 6.85 | pKi ([2]; read-out: Ki): 10.10

CCCN1CCC(c2nc3cc([C@]4(CN5Cc6ccc(OC)c(F)c6C5=O)NC(=O)NC4=O)oc3cc2F)CC1 [Compound 1324]
pIC50 [1, 3]: 6.61 | pKi ([2]; Ki): 9.24

COCCN1CCN(c2ccc3oc([C@]4(CN5Cc6ccc(OC)cc6C5=O)NC(=O)NC4=O)cc3n2)CC1 [Compound 1500]
pIC50 [1, 3]: 6.48 | pKi ([2]; read-out: Ki): 8.96

COc1ccc2c(c1)C(=O)N(C[C@@]1(c3ccc(-c4cnc(N5CCCC5)nc4)cc3)NC(=O)NC1=O)C2 [Compound 1503]
pIC50 [1, 3]: 5.15 | pKi ([2]; read-out: Ki): 8.62

COc1ccc2c(c1F)C(=O)N(C[C@@]1(c3cc4nc(-c5cccc(C#N)c5)ccc4o3)NC(=O)NC1=O)C2 [Compound 1504]
pIC50 [1, 3]: 6.24 | pKi ([2]; read-out: Ki): 9.40

COc1ccc2c(c1)C(=O)N(C[C@@]1(c3cc4nc(-c5cnc(N6CCCC6)nc5)ccc4o3)NC(=O)NC1=O)C2 [Compound 1505]
pIC50 [1, 3]: 5.89 | pKi ([2]; read-out: Ki): 9.22

COc1ccc2c(c1)C(=O)N(C[C@@]1(c3cc4nc(-c5ccc(F)c(C#N)c5)ccc4o3)NC(=O)NC1=O)C2 [Compound 1507]
pIC50 [1, 3]: 5.39 | pKi ([2]; read-out: Ki): 9.15

COc1ccc2c(c1)C(=O)N(C[C@@]1(c3cc4nc(C5CC5)ccc4o3)NC(=O)NC1=O)C2 [Compound 1508]
pIC50 [1, 3]: 5.61 | pKi ([2]; read-out: Ki): 9.05

COc1ccc2c(c1)C(=O)N(C[C@@]1(c3cc4nc(-c5cnc(OC)nc5OC)ccc4o3)NC(=O)NC1=O)C2 [Compound 1509]
pIC50 [1, 3]: 5.53 | pKi ([2]; read-out: Ki): 9.30

COc1ccc2c(c1)C(=O)N(C[C@@]1(c3cc4nc(C(=O)O)ccc4o3)NC(=O)NC1=O)C2 [Compound 1514]
pIC50 [1, 3]: 6.71 | pKi ([2]; read-out: Ki): 9.15

COc1ccc2c(c1F)C(=O)N(C[C@@]1(c3cc4nc(N5CCCC(C(N)=O)C5)ccc4o3)NC(=O)NC1=O)C2 (stereo partly shown) [Compound 1517]
pIC50 [1, 3]: 6.59 | pKi ([2]; read-out: Ki): 9.30

COc1ccc2c(c1)C(=O)N(C[C@@]1(c3cc4nc(-c5ccc(OC)nc5)ccc4o3)NC(=O)NC1=O)C2 [Compound 1518]
pIC50 [1, 3]: 5.82 | pKi ([2]; read-out: Ki): 9.05

COc1ccc2c(c1)C(=O)N(C[C@@]1(c3cc4nc(-c5cnc(N)nc5)ccc4o3)NC(=O)NC1=O)C2 [Compound 1519]
pIC50 [1, 3]: 6.85 | pKi ([2]; read-out: Ki): 9.40
